# Source: patent US11583532B2, “Triazolopyrimidine derivatives for use as ghrelin o-acyl transferase (GOAT) inhibitors” (Boehringer Ingelheim International GmbH, priority 2018, dated 2023)
# Target: human GOAT (ghrelin O-acyl transferase) (Homo sapiens (Human), UniProt Q96T53)
# Assay: Determination of hGOAT activity in HEK293 cells after incubation with test compound (acyl-ghrelin ELISA)
# Type: cell-based
# Settings: HEK293 cells stably transfected with preproghrelin and human GOAT cDNA; octanoate-BSA 100 μM; 5 hours incubation; acyl-ghrelin in medium by ELISA; 8 compound concentrations
# Protocol: Determination of hGOAT Activity in HEK293 Cells after incubation with test compound
# HEK293 cells stably transfected with two expression vectors, one coding for preproghrelin cDNA and a second for the expression of human GOATcDNA are used as a cellular model. After feeding the cells with octanoic acid for 5 hours, acyl-ghrelin is measured in cell culture medium by an ELISA procedure.
# Cellline: Hek293 hGOAT/PPGhrl Clone #1B8Sodium octanoate, Sigma, Cat.-No. C5038
# BSA: Sigma, Cat.-No. A8806
# BD Poly-D-Lysin 384-well Plates, black-clear polystyrene BD Bioscience Cat.-No. […] ELISA human acylated Ghrelin Kit purchased from Bertin Pharman (detailed composition of buffers e.g. wash-puffer, ELISA buffer not known)
# All further reagents used were of highest analytical grade available.
# Cells are plated with a density of 5000 cells/well in 384-well poly-D-lysin plates and incubated for 1 day at 37° C., 5% CO2 in DMEM medium, 10% FCS, 1×NEAA, Puromycin (0.5 μg/ml) and G418 (1 mg/ml). Then the medium is changed to a identical medium without FCS and containing Octanoate-BSA (final concentration 100 μM each) and compound in DMSO (final DMSO concentration 0.3%). After incubation for 5 hours acylghrelin in the medium is measured by ELISA.
# The medium sample is diluted 1:25 in Elisa buffer, a 25 μl aliquot is transferred to a 384-well ELISA plate previously washed 4 times with 100 μL wash buffer, and 25 μl tracer-solution is added. After incubation overnight (˜20 h) at 4° C. temperature the plate is washed 4 times with 100 μl wash-buffer per well. Finally 50 μl Ellman's reagent is added to each well and the plate is incubated in the dark for 20 minutes. The absorbance is measured at 405 nm in an Envision multilabel reader and the amount of acylated ghrelin is calculated according to a acylated ghrelin standard curve provided in the same plate.
# The analysis of the data is performed by calculation of the percentage of acyl-ghrelin produced in the presence of test compound compared to the amount of acyl-ghrelin produced in the vehicle control samples. An inhibitor of the GOAT enzyme will give values between 100% CTL (no inhibition) and 0% CTL (complete inhibition).
# IC50 values are calculated with Assay Explorer or other suited software based on curve fitting of results of 8 different compound concentrations.
# Sequence of human GOAT (ghrelin O-acyl transferase) (Q96T53 whole entry): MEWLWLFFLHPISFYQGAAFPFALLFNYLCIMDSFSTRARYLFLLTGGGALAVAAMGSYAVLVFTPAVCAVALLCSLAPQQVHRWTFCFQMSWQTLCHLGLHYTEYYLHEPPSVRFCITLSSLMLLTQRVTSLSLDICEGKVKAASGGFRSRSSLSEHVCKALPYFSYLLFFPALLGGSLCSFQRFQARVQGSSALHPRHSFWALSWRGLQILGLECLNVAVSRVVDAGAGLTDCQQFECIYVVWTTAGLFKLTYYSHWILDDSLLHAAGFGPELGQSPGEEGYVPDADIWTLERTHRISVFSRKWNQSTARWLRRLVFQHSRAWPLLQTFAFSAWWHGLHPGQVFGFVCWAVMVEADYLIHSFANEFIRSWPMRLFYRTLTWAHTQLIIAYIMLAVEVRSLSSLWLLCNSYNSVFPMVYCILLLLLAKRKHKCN
row,IC50 [nM],SMILES
1,0.3,Cc1nc2ncnn2c(N)c1Cc1ccc(Br)c(OCCF)n1 [Example 8.3]
2,0.69,COc1cc(C(F)(F)F)ccc1Cc1c(C)nc2ncnn2c1N [Example 6.2]
3,0.27,"Cc1nc2ncnn2c(N)c1Cc1ccc(Br)c(OCCCF)n1 [Example 8.1, 6-{[5-Bromo-6-(3-fluoropropoxy)pyridin-2-yl]methyl}-5-methyl-[1,2,4]triazolo[1,5-a]pyrimidin-7-amine]"
4,0.68,"Cc1nc2ncnn2c(N)c1Cc1ccc(Br)c(-n2cc(F)cn2)n1 [Example 10.1, 6-{[5-Bromo-6-(4-fluoro-1H-pyrazol-1-yl)pyridin-2-yl]methyl}-5-methyl-[1,2,4]triazolo[1,5-a]pyrimidin-7-amine]"
5,9.2,"Cc1nc2ncnn2c(N)c1Cc1ccc(OC(F)(F)F)c(C#N)c1 [Example 20.1, 5-({7-Amino-5-methyl-[1,2,4]triazolo[1,5-a]pyrimidin-6-yl}methyl)-2-(trifluoromethoxy)benzonitrile]"
6,1.3,Cc1nc2ncnn2c(N)c1Cc1ccc(C#N)c(OCC(C)(F)F)n1 [Example 7.4]
7,0.31,"Cc1nc2ncnn2c(N)c1Cc1ccc(Br)c(OCC(C)(F)F)n1 [Example 1.1, 6-{[5-Bromo-6-(2,2-difluoropropoxy)pyridin-2-yl]methyl}-5-methyl-[1,2,4]triazolo[1,5-a]pyrimidin-7-amine]"
8,7.2,"Cc1nc2ncnn2c(N)c1Cc1ccc(Br)c(C(=O)OCC(F)(F)F)c1 [Example 22.1, 2,2,2-Trifluoroethyl 5-({7-amino-5-methyl-[1,2,4]triazolo[1,5-a]pyrimidin-6-yl}methyl)-2-bromobenzoate]"
9,3,Cc1nc2ncnn2c(N)c1Cc1ccc(C(F)(F)F)nc1OC1CCC1 [Example 4.6]
10,0.83,Cc1nc2ncnn2c(N)c1Cc1ccc(Br)c(N2CCC(O)(C(F)(F)F)C2)n1 (centres unmarked) [Example 23.5]
11,2.1,Cc1nc2ncnn2c(N)c1Cc1cccc(-c2c[nH]nc2C(F)(F)F)n1 [Example 13.2]
12,3.9,"Cc1nc2ncnn2c(N)c1Cc1ccc(OC(F)(F)F)cc1 [Example 6.1, 5-methyl-6-{[4-(trifluoromethoxy)phenyl]methyl}-[1,2,4]triazolo[1,5-a]pyrimidin-7-amine]"
13,1.1,Cc1nc2ncnn2c(N)c1Cc1ccc(C#N)c(NCCF)n1 [Example 7.8]
14,1.7,"Cc1nc2ncnn2c(N)c1Cc1ccc(SC(F)(F)F)cc1 [Example 6.5, 5-methyl-6-({4-[(trifluoromethyl)sulfanyl]phenyl}methyl)-[1,2,4]triazolo[1,5-a]pyrimidin-7-amine]"
15,0.25,"Cc1nc2ncnn2c(N)c1Cc1ccc(Br)c(N2CCC(F)(F)C2)n1 [Example 23.1, 6-{[5-Bromo-6-(3,3-difluoropyrrolidin-1-yl)pyridin-2-yl]methyl}-5-methyl-[1,2,4]triazolo[1,5-a]pyrimidin-7-amine]"
16,8.1,"Cc1nc2ncnn2c(N)c1Cc1ccc(C(F)(F)F)cc1F [Example 21.1, 6-{[2-Fluoro-4-(trifluoromethyl)phenyl]methyl}-5-methyl-[1,2,4]triazolo[1,5-a]pyrimidin-7-amine]"
17,8.8,Cc1nc2ncnn2c(N)c1Cc1cccc(OC(F)F)n1 [Example 4.8]
18,0.4,"Cc1nc2ncnn2c(N)c1Cc1ccc(C(F)(F)F)c(-c2ccco2)n1 [Example 2.1, 6-{[6-(Furan-2-yl)-5-(trifluoromethyl)pyridin-2-yl]methyl}-5-methyl-[1,2,4]triazolo[1,5-a]pyrimidin-7-amine]"
19,2.4,"Cc1nc2ncnn2c(N)c1Cc1ccc(C#N)c(OCC(F)F)n1 [Example 9.1, 6-({7-Amino-5-methyl-[1,2,4]triazolo[1,5-a]pyrimidin-6-yl}methyl)-2-(2,2-difluoroethoxy)pyridine-3-carbonitrile]"
20,0.56,Cc1nc2ncnn2c(N)c1Cc1ccc(C#N)c(OCCCF)n1 [Example 9.3]
